In ChEMBL document CHEMBL2203228, “Structural modifications of a 3-methoxy-2-aminopyridine compound to reduce potential for mutagenicity and time-dependent drug-drug interaction” (Bioorg Med Chem Lett, 2012):
≈ marks a conversion by molar mass, not a printed value.

Tests used:
Salmonella typhimurium = experiment: Mutagenic activity in Salmonella typhimurium assessed as fold increase in colony forming units by Bioluminescent Ames assay relative to control; assay type: toxicity, organism-based; conditions: salmonella enterica subsp. enterica serovar typhimurium
Cytochrome P450 3A4 [1] = target: T1, Cytochrome P450 3A4 (Homo sapiens, UniProt P08684); experiment: Time dependent inhibition of human liver microsome CYP3A4 assessed as change in midazolam metabolism at 60 uM by two-step reaction; assay type: ADME; set-up: scale not given: the % may be the effect or the level left; conditions: microsomes
[2] = Oral bioavailability in rat; assay type: ADME, organism-based; conditions: in vivo
[3] = Half life in rat; assay type: ADME, organism-based; conditions: in vivo
Cytochrome P450 3A4 [4] = target: T1, Cytochrome P450 3A4; experiment: Time dependent inhibition of CYP3A4; assay type: ADME; conditions: TDE = time-dependent effect
[5] = target: Serine/threonine-protein kinase B-raf (Homo sapiens, UniProt P15056, V600E); experiment: Inhibition of B-Raf V600E mutant -mediated MEK phosphorylation
[6] = Solubility of the compound; assay type: physicochemical
[7] = Clearance in rat; assay type: ADME, organism-based; conditions: in vivo

T1 sequence (P08684 whole entry): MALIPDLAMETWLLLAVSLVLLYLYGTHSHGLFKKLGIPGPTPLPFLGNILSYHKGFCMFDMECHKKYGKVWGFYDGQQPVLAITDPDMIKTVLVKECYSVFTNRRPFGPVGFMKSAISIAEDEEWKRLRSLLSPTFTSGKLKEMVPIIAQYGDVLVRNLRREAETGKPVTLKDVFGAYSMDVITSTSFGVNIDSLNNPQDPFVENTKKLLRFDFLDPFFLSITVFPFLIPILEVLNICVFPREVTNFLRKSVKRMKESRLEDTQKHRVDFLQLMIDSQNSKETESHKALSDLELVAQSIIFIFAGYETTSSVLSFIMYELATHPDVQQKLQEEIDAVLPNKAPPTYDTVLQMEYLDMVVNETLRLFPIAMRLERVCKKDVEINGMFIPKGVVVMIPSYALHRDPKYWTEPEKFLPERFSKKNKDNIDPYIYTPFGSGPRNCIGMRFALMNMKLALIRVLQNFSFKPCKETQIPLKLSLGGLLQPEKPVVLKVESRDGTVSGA
Sequence of Serine/threonine-protein kinase B-raf (P15056 2-766 V600E limits assumed): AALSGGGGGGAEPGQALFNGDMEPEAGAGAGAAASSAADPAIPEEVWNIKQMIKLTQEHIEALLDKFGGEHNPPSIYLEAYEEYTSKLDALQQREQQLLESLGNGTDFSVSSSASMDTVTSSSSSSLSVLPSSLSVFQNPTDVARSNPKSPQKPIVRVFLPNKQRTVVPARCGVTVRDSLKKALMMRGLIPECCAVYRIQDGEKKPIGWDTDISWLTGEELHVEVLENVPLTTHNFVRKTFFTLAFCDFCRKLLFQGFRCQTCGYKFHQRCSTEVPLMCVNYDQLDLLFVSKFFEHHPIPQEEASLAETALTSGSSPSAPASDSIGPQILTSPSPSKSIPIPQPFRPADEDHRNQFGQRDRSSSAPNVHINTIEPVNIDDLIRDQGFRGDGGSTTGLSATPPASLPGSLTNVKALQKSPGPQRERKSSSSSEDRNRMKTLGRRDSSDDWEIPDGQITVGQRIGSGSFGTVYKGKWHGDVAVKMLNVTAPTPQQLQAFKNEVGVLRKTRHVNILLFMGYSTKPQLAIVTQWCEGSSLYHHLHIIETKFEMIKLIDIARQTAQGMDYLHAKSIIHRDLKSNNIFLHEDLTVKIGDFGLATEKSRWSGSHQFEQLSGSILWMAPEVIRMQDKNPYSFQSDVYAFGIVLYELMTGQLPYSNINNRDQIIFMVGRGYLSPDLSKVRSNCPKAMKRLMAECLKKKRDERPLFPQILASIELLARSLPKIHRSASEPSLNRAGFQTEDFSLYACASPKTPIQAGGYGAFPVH

Row | Structure (SMILES) | Activity (Cytochrome P450 3A4 [1]) | fold change (FC) (Salmonella typhimurium) | further results
1 | CC(=O)c1cc(-c2nn(C(C)C)cc2-c2ccnc(NC[C@H](C)O)n2)cnc1N | < 30% | < 2 | 
2 | COc1cncc(-c2nn(C(C)C)cc2-c2ccnc(NC[C@H](C)O)n2)c1 | < 30% | < 2 | 
3 | CC(C)n1cc(-c2ccnc(NC[C@H](C)O)n2)c(-c2cnc3[nH]ccc3c2)n1 | 11% | < 2 | 
4 | CC(C)n1cc(-c2ccnc(NC[C@H](C)O)n2)c(-c2cnc3[nH]cc(Cl)c3c2)n1 | 11% | < 2 | 
5 | COc1cc(-c2nn(C(C)C)cc2-c2ccnc(NC[C@H](C)O)n2)cnc1N | 13% | 4 | bioavailability [2]: 43%; half-life [3]: 4.43 h; inhibition (INH) (Cytochrome P450 3A4 [4]): tde; Activity (Salmonella typhimurium): Non-toxic; IC50 [5]: 6.5 nM; solubility [6]: 503 µM (≈ 193 µg/mL); clearance [7]: 56.3 mL/min/kg
6 | COc1cc(-c2nn(C(C)C)cc2-c2ccnc(NC[C@H](C)O)n2)c(C)nc1N |  |  | Activity (Salmonella typhimurium): Toxic

Continued, in another order:

Row | Activity (Cytochrome P450 3A4 [1]) | Structure (SMILES) | fold change (FC) (Salmonella typhimurium) | further results
7 | < 30% | CC(C)n1cc(-c2ccnc(NC[C@H](C)O)n2)c(-c2cnc3[nH]ncc3c2)n1 | < 2 | 
8 | 11% | Cc1c[nH]c2ncc(-c3nn(C(C)C)cc3-c3ccnc(NC[C@H](C)O)n3)cc12 | < 2 | 
9 | 30% | COc1nc(-c2nn(C(C)C)cc2-c2ccnc(NC[C@H](C)O)n2)cnc1N | 4 | 
